The source of these data is ChEMBL document CHEMBL1201862, “PubChem BioAssay data set” (2004).

A short description of assay [1]: luciferase reporter signal reduction – luminescence, H4-C neuroglioblastoma cells, dose response (AID 2458).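 Further: H4 neuroglioblastoma cells stably carrying a luciferase reporter gene fusion.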 The format is functional, cell-based. On the technique in general: In a reporter assay the amount or activity of a reporter protein is the signal.
Assay [2] concerns BJ. The assay can be described thus: cytotoxicity toward BJ-TERT fibroblasts, dose response, cell-based, RAS-independent, luminescence (AID 1933). The format is functional. The conditions noted are these: Homo sapiens.
The next assay is described as follows: cells. The format is functional, cell-based.
Assay [3] can be described thus: inhibitors of SNCA 5'UTR-driven reporter translation, confirmation, H4 neuroglioma cells, luminescence (AID 1988). The format is functional, cell-based.
Assay [4] deals with BJ. Description: cells. The format is functional, cell-based. The conditions noted are these: Homo sapiens.
Assay [5] in a line: Luminescence-based dose response cell-based high throughput screening assay for cytotoxic compounds using the IEC-6 intestinal epithelial cell line. [Related pubchem assays: 1858 (Summary AID.), 1825 (Counterscreen.), 1907 (Confirmation screen.)]. The format is functional. A general note: Counterscreens check selectivity or assay interference.
The test system of assay [6] is BJ. Description: cytotoxicity toward BJ-TERT-LT-ST fibroblasts, dose response, cell-based, RAS-independent, luminescence (AID 1935).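 Further: BJ fibroblasts immortalized with TERT plus LT and ST oncogenes.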 The format is functional. The conditions noted are these: Homo sapiens.
Assay [7] can be described thus: cytotoxicity toward DRD oncogenic fibroblasts, dose response, cell-based, non-viral oncogenic, luminescence (AID 1934). The format is functional. The conditions noted are these: Homo sapiens.
Assay [8] is described as follows: inhibitors of SNCA 5'UTR-driven translation, confirmation, luminescence, H4 neuroglioblastoma cells, dose confirmation (AID 2454).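 Further: H4 neuroglioblastoma cells carrying an alpha-synuclein 5'UTR luciferase reporter; potency for inhibition of the luciferase signal.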 The format is functional, cell-based.
A short description of assay [9]: cytotoxicity in HEK-293T cells, dose response, cytotoxicity control for TCR NF-kB inhibitor project, luminescence, T-cell screen hits (AID 489026).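 Further: cells exposed to compound about 14 hours before the viability readout.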 The format is functional, cell-based.
Another assay has as its target Phospholipase A2 (Homo sapiens, UniProt P04054). Description: PLA2 enzyme inhibitors, dose response, counter-screen for ATG4B inhibitor project, biochemical, set 2 (AID 588586). The format is functional.
The target in a further assay is T1, Cysteine protease ATG4B (Homo sapiens, UniProt Q9Y4P1).
T1 sequence (Q9Y4P1 whole entry): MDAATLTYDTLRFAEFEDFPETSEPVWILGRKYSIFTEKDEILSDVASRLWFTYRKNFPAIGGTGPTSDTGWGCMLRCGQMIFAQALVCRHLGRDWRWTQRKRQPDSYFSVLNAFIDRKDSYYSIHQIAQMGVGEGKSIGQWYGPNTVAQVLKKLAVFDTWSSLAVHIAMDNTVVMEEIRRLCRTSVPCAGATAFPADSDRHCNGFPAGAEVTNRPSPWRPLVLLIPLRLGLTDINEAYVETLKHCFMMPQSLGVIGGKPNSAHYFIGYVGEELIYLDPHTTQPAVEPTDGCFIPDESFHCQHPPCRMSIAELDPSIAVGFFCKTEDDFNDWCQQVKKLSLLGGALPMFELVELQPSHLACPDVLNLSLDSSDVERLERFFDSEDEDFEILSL
Description: ATG4B protease inhibitors, dose response, biochemical, fluorescence, set 2 (AID 588584). The format is functional.

Another assay deals with Paired box protein Pax-8 (Homo sapiens, UniProt Q06710). Description: inhibitors of PAX8-driven TPO luciferase reporter, dose response, RMG-I cells, cherry-pick (AID 687027).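 Further: luciferase reporter driven by Pax8 target thyroperoxidase promoter measured by SteadyGlo luminescence.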 The format is functional, cell-based.
Paired box protein Pax-8, sequence (Q06710 whole entry): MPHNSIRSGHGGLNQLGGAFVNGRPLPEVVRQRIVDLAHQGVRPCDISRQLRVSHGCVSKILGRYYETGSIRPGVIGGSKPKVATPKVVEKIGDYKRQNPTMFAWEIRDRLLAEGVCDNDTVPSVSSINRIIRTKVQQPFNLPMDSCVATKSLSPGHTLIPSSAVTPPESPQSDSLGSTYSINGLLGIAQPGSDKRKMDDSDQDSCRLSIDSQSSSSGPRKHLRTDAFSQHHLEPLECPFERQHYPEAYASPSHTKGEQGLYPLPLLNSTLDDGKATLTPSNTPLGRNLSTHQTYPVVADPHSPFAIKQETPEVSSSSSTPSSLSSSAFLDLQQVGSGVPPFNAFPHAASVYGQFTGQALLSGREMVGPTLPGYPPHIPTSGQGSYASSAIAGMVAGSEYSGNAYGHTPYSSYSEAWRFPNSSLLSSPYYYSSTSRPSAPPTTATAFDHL
Assay [10] can be described thus: PAX2 cell-based inhibition, dose response, selectivity assay for PAX8 inhibitor project, plate reader, dry powder samples (AID 743048).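 Further: HEK293 cells carrying a WT1 promoter luciferase reporter driven by expressed Pax2; potency is for inhibition of Pax2 driven reporter signal.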 The format is functional.
Assay [11] in a line: cytotoxicity in COV362 ovarian cancer cells, dose response, cytotoxicity control for PAX8 inhibitor project, cell-based, plate reader, dry powder, SA12 (AID 743144). The format is functional.
Assay [12] can be described thus: IOSE-T80 ovarian epithelial cell cytotoxicity, dose response, cytotoxicity control for PAX8 inhibitor project, plate reader, dry powder samples (AID 743045). The format is functional, cell-based.
Assay [13] can be described thus: A2780 ovarian cancer cell cytotoxicity, dose response, cytotoxicity control, plate reader, dry powder samples (AID 743046). The format is functional, cell-based.
Assay [14] is described as follows: NIH:OVCAR-3 ovarian cancer cell cytotoxicity, dose response, PAX8 inhibitor project, plate reader, dry powder samples (AID 743044). The format is functional, cell-based.
Assay [15] in a line: PAX5 activity inhibitors, dose response, selectivity assay for PAX8 inhibitor project, cell-based, plate reader, dry powder samples (AID 743047).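 Further: HEK293 cells carrying a Pax5 driven CD19 promoter luciferase reporter; potency of inhibitors that lower reporter luminescence.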 The format is functional.
Assay [16] can be described thus: IGROV1 ovarian cancer cell cytotoxicity, dose response, PAX8 inhibitor project, plate reader, dry powder samples (AID 743043). The format is functional, cell-based. The conditions noted are these: IGROV-1.
Assay [17] can be described thus: cytotoxicity in OVCAR4 cells, dose response, cytotoxicity control for PAX8 inhibitor project, cell-based, plate reader, dry powder, SA11 (AID 743150). The format is functional. The conditions noted are these: OVCAR-4.
Assay [18] is described as follows: cytotoxicity in COV434 cells, dose response, cytotoxicity control for PAX8 inhibitor project, cell-based, plate reader, dry powder, SA7 (AID 743145). The format is functional.
Assay [19] can be described thus: cytotoxicity in OV-90 ovarian cancer cells, dose response, PAX8 inhibitor project, cell-based, plate reader, dry powder, SA8 (AID 743149). The format is functional.
Assay [20] in a line: cytotoxicity dependent on PAX8, dose response, cell-based, plate reader, dry powder (AID 743049). The format is functional.
Another assay has as its system HEK293. Description: Fluorescence-based counterscreen for potentiators or agonists of NPY-Y2: cell-based high-throughput dose response assay to identify inhibitors of cyclic nucleotide gated ion channel (CNGC) activity. In this assay, the parental HEK293 cell line transfected with a cyclic-nucleotide gated ion channel (CNGC)-based cAMP sensor is used to measure inhibition of isoproterenol-induced CNGC activity by test compound. The format is functional. The conditions noted are these: Homo sapiens.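 Further: stimulus is 1 µM isoproterenol at EC100 plus PDE inhibitor Ro 20-1724 at 25 µM.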

The target in assay [21] is T2, Neuropeptide Y receptor type 2 (Homo sapiens, UniProt P49146).
T2 sequence (P49146 whole entry): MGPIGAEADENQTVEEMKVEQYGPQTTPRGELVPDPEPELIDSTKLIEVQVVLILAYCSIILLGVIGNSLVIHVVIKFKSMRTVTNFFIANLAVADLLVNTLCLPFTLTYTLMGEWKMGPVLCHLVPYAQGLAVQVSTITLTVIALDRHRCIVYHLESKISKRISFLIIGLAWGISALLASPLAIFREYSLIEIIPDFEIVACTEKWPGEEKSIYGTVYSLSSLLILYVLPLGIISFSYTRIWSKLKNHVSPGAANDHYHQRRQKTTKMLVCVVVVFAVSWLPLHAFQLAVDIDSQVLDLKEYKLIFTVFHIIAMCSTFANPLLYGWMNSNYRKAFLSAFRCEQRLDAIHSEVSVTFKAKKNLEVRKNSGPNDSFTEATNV
The assay can be described thus: Fluorescence-based cell-based high-throughput dose response assay for agonists of NPY-Y2. [Related pubchem assays: 1703 (Screening assay (CNGC inhibitors).), 1359 (Screening assay (NPY-Y2 potentiators or agonists).), 1304 (Screening assay (NPY-Y1 potentiators or agonists).), 1710 (Screening assay (NPY-Y2 agonists).), 1791 (Summary AID.)]. The format is functional.

For assay [22], the target named is T3, Neuropeptide Y receptor type 1 (Homo sapiens, UniProt P25929).
T3 sequence (P25929 whole entry): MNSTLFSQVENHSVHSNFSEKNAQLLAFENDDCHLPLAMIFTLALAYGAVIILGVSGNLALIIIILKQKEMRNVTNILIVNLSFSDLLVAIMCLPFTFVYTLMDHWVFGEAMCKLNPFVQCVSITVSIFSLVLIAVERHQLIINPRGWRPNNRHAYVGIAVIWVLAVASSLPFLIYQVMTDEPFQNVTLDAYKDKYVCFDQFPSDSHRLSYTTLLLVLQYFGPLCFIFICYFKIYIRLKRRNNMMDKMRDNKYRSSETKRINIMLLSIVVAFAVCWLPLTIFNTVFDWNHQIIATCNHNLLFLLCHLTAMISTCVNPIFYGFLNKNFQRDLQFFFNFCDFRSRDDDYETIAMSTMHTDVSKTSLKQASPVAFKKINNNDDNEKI
Description: Fluorescence-based counterscreen for agonists of NPY-Y2: cell-based high-throughput dose response assay for agonists of NPY-Y1. The format is functional.

Calls of active or inactive are those of the source. A value given as a limit tells only on which side of the number the result lay.

Phospholipase A2, sequence (P04054 whole entry): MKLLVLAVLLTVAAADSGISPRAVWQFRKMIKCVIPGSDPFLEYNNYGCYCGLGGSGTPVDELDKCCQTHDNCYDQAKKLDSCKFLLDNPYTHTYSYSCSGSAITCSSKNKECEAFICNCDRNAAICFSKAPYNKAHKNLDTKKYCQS

Take `CCCC1=Nc2cc(C(=O)NCCCOCC)ccc2Sc2ccccc21`: the EC50 in assay [1] is 0.592 µM (active); with BJ [2], 0.586 µM (inconclusive); in “cells” it was 0.985 µM (active); in [3] it was < 0.1 µM (active); in the assay on BJ [4] it was 0.863 µM (inconclusive); with BJ [6] it was 0.607 µM (inconclusive). The figures for the EC50 in assay [7] and in assay [8] were 0.74 µM (inconclusive) and 0.836 µM (active), respectively. The IC50 in assay [5] was 0.389 µM (active); in assay [9], > 80 µM (inactive); at Phospholipase A2, 48.9 µM (inactive); at Cysteine protease ATG4B, 49 µM (inactive). Moreover, the AC50 on Paired box protein Pax-8 was 1.74 µM (active); in assay [10], 64 µM (active); in [11], 1.42 µM (active); in assay [12], 1.22 µM (active); in assay [13], 5.66 µM (active); in assay [14], 5.37 µM (active). Further, the AC50 in [15] was 1.48 µM (active); in assay [16] it was 7.99 µM (active); in [17] it was 0.885 µM (active); in [18], 1.3 µM (active); in assay [19], 1.36 µM (active); in assay [20], 7.23 µM (active).
On to `COc1ccc(N2CCN(CC(O)COc3ccccc3[N+](=O)[O-])CC2)cc1` (configuration not stated), for which the EC50 is 2.43 µM (active) in the assay on HEK293, 12.3 µM (not active) in [21] and 9.49 µM (active) in assay [22].

Broadly, the EC50 is the midpoint of the concentration-response curve. For orientation: IC50 means the midpoint of a concentration-inhibition curve. In general, AC50 refers to the concentration at which the activity in the assay is half-maximal.
